How the values were obtained:
[1] = test system: cathepsin D (E2/ER-regulated gene) in MCF-7 cells; assay: cathepsin D protein expression in MCF-7 cells; format: cell-based, human; settings: 24-hr exposure to E2 (10 nM)
Protocol: FIG. 7 depicts the ability of compounds 4631-P/1 and 35466-L/1 to inhibit the expression of an ER-regulated gene. Cathepsin D was used as a prototype E2/ER-regulated gene.
For Western blotting, after the indicated treatment(s), cells were harvested, and whole-cell lysates were prepared using RIPA buffer (Santa Cruz). Equal aliquots of whole-cell protein (either 100 μg unprecipitated whole-cell lysate or one half of the precipitated protein from 500 μg whole-cell lysate) were electrophoresed on 4-12% SDS-polyacrylamide gradient gels, transferred to nitrocellulose membranes (Millipore, Bedford, Mass.), and blotted using primary antibodies directed against BRCA1 (C-20, rabbit polyclonal, 1:200 dilution; Santa Cruz), ER (F10, mouse monoclonal, sc-8002, 1:500; Santa Cruz), and actin (goat polyclonal, catalog item sc-1615, 1:400; Santa Cruz). The membranes were then blotted with the appropriate secondary antibodies (1:1000; Santa Cruz), and the blotted proteins were visualized using an electrochemiluminescence (ECL) detection system (Amersham Biosciences), with colored markers (Bio-Rad Laboratories, Hercules, Calif.) as molecular size standards.

[2] = test system: progesterone receptor (PR) activity in T47D cells; assay: MMTV-Luc reporter assay for PR activity in T47D cells; format: cell-based, human; settings: R5020 10 nM
Protocol: FIG. 10 depicts that the inhibition of ER activity by these six compounds is not to due to non-specific cytotoxicity, since cell viability remained over 80% after a 24-hr exposure to 1 μM of each of the compounds (A). One of the compounds was tested for its ability to inhibit progestin-stimulated progesterone receptor (PR) activity in a PR+ human breast cancer cell line (T47D), using the MMTV-Luc reporter as a readout for PR activity (B). Here, PR activity was stimulated over 20-fold by the synthetic progestin R5020 (10 nM), but compound 4631-P/1 had no effect on PR activity at either 1 μM or 20 μM.
Progesterone receptor (PR) transcriptional activity assays were carried out in T47D cells using the synthetic progestin R5020 (10 nM) to activate PR and the MMTV-Luc reporter as a readout for PR activity.
Subconfluent proliferating MCF-7 cells were treated with vehicle (DMSO) or with the a sensitizing compound for 24 hours and then assayed for cell viability using MTT dye reduction assays. […] Subconfluent proliferating T47D cells were also transfected overnight with a progesterone-responsive reporter (MMTV-Luc) and then exposed to a synthetic progestin (R5020, 10 nM) for 24 hours in the absence or presence of compound 4631 P/1, as indicated.

[3] = test system: ER activity in MCF-7 cells; assay: ERE-TK-Luc reporter assay in MCF-7 cells; format: cell-based, human
From the text: (§1) FIG. 8 depicts BRCA1 over-expression partially restores Tamoxifen sensitivity to anti-estrogen-resistant LCC9 cells. The effect of BRCA1 over-expression (by transfection of a wild-type (wt) full-length BRCA1 expression vector) was studied in E2-insensitive anti-estrogen resistant LCC9 human breast cancer cells with E2-sensitive/anti-estrogen sensitive MCF-7 breast cancer cells. The wtBRCA1 suppressed the constitutive ER activity (measured using the ERE-TK-Luc reporter as a readout), but Tam (5 μM) by itself had no effect on ER activity (A and B (left)). […] When MCF-7 cells were tested in the absence of E2, ER activity was very low under most conditions (illustrating the requirement for E2 to activate ER), but in the absence of E2, Tam functioned as an ER agonist and caused about a (5-6)-fold increase in ER activity (P<0.001).
FIG. 9 depicts the inhibition of E2-stimulated ER activity in MCF-7 cells by six compounds.
Subconfluent cells in 24-well dishes were transfected overnight with 0.25 μg of each indicated vector plus the ERE-TK-Luc reporter in serum-free DMEM containing Lipofectamine2000 (Life Technologies). The total transfected DNA was kept constant by addition of the appropriate control vector. […]

[4] = test system: ER activity in LCC9 cells; assay: ERE-TK-Luc reporter assay in LCC9 cells; format: cell-based, human; settings: Tam 5 μM, wtBRCA1 expression vector transfected
Protocol: FIG. 3 depicts the inhibition of ER activity in anti-estrogen resistant LCC9 cells. LCC9 cells in 24-well dishes were transfected overnight with the ERE-TK-Luc reporter plasmid (0.25 μg per well), washed, and allowed to recover for several hours in fresh culture medium. The cells were then treated with the indicated concentrations of the six bioactive compounds or vehicle only (DMSO) for 24 hr and assayed for luciferase activity. Luciferase activity is expressed as a percentage of the DMSO control. Values are means±SEMs of four replicate wells.
as §1, with “(P<0.001). […]” for “(P<0.001).”

BRCA1 protein levels = assay: siRNA efficacy validation by Western blotting; format: cell-based; settings: minimum 48 hr exposure to 100 nM siRNA
Protocol: (catalog number: 43924220, Ambion/Life Technologies; and negative control-siRNA (catalog number: AM4461, Ambion). The efficacy of the ER-siRNA was validated by Western blotting. For siRNA treatments, subconfluent cells were treated with ER-specific or control siRNAs (final concentration of 100 nM) using siPORT Amine transfection reagent (Ambion), according to the manufacturer's instructions.

C[C@]12CC[C@@H]3c4ccc(O)cc4CC[C@H]3[C@@H]1CC[C@@H]2O [E2, 17β-estradiol]
cathepsin D protein levels after E2 [1]: increased significantly

CCC(=O)[C@@]1(C)CC[C@H]2[C@@H]3CCC4=CC(=O)CCC4=C3CC[C@@]21C [R5020]
stimulation of PR activity [2]: over 20 fold

CC/C(=C(\c1ccccc1)c1ccc(OCCN(C)C)cc1)c1ccccc1 [Tam, Tamoxifen]
increase in ER activity in the absence of E2 ([3]; absence of E2, P<0.001): 5-6 fold
E2-stimulated ER activity in MCF-7 cells (ERE-TK-Luc) ([3]; with E2): strongly suppressed
constitutive ER activity in LCC9 cells (ERE-TK-Luc) [4]: no effect

ER-siRNA: ER-α small interfering RNA, Ambion catalog number 43924220 (sense CAGGCACAUGAGUAACAAATT; antisense UUUGUUACUCAUGUGCCUGAT; chemistry not given here)
reduction of the BRCA1 protein levels (BRCA1 protein levels): > 75%

Reference: US9603844B2, “Compositions and methods for treating mammary tumors” (GEORGETOWN UNIVERSITY, priority 2012, dated 2017)
